For one compound, stability to temperature results are on record in US20110039902A1, “PROCESS FOR PREPARING A CRYSTALLINE FORM COMPOUND OF 3-BENZYL-2-METHYL-2,3,3a,4,5,6,7,7a-OCTAHYDROBENZO[d]ISOXAZOL-4-ONE” (ABIOGEN PHARMA S.P.A., priority 2008, published 2011).

The nature of the data set: stability of BTG 1640 hydrochloride salt to temperature. The class given is physicochemical. The following applies: at temperatures above 30° C.

Regarding `CN1OC2CCCC(=O)C2C1Cc1ccccc1.Cl` (stereo not shown) [hydrochloride salt of BTG 1640], the stability to temperature entry is on record as “unstable”.
